Measurements reported in patent publication US9708314B2, “Heterocyclic amide compound” (NISSAN CHEMICAL INDUSTRIES, LTD., priority 2013, dated 2017).

Tests used:
Assay type in all cases: in vivo
[1] = test system: directly sowed Oryza sativa; assay: Test Example 3: effect on crop by application to foliage (Wagner pot, water depth 0.1-0.5 cm); settings: Nineteenth Table; application to foliage; application herbicide amount 320 g/ha
Outline: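 Three weeks after spraying, each species was graded 0–5 for herbicidal ratio, 5 being 90% or more. Application: water-diluted emulsifiable concentrate at a fixed g/ha to foliage of 14-day-old greenhouse (25–30 °C) plants in alluvial soil.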

Avena fatua = assay: Test Example 4: herbicidal effect by application to foliage (diluvial soil, plastic box); settings: 320 g/ha; for herbicidal effect, I (Avena fatua): application to foliage; for I (Avena fatua) herbicidal effect grade: foliage application
Outline: (§1)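 Emulsion-formulated compound, diluted to a predetermined g/ha dose, applied by small sprayer to leaves and stems of 14-day-old seedlings grown in sterilized diluvial soil. Effect rated on 0–5 herbicidal-ratio scale three weeks on.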

Digitaria ciliaris = assay: as above; settings: 320 g/ha; for herbicidal effect, F (Digitaria ciliaris): application to foliage; for F (Digitaria ciliaris) herbicidal effect grade: foliage application
Outline: as §1

Alopecurus myosuroides = assay: as above; settings: 320 g/ha; for herbicidal effect, J (Alopecurus myosuroides): application to foliage; for J (Alopecurus myosuroides) herbicidal effect grade: foliage application
Outline: as §1

Chenopodium album = assay: as above; settings: 320 g/ha; for herbicidal effect, O (Chenopodium album): application to foliage; for O (Chenopodium album) herbicidal effect grade: foliage application
Outline: as §1

Abutilon theophrasti = assay: as above; settings: 320 g/ha; for herbicidal effect, M (Abutilon theophrasti): application to foliage; for M (Abutilon theophrasti) herbicidal effect grade: foliage application
Outline: as §1

Galium spurium = assay: as above; settings: 320 g/ha; for herbicidal effect, Q (Galium spurium): application to foliage
Outline: as §1

Lolium multiflorum Lam. = assay: as above; settings: 320 g/ha; for herbicidal effect, K (Lolium multiflorum Lam.): application to foliage; for K (Lolium multiflorum Lam.) herbicidal effect grade: foliage application
Outline: as §1

Stellaria media = assay: as above; settings: 320 g/ha; for herbicidal effect, P (Stellaria media): application to foliage; for P (Stellaria media) herbicidal effect grade: foliage application
Outline: as §1

[2] = test system: Echinochloa crus-galli var. crus-galli; assay: as above; settings: 320 g/ha; for herbicidal effect, H (Echinochloa crus-galli var. crus-galli): application to foliage; for H (Echinochloa crus-galli var. crus-galli) herbicidal effect grade: foliage application
Outline: as §1

Setaria viridis = assay: as above; settings: 320 g/ha; for herbicidal effect, G (Setaria viridis): application to foliage; for G (Setaria viridis) herbicidal effect grade: foliage application
Outline: as §1

Apera spica-venti. = assay: as above; settings: 320 g/ha; for herbicidal effect, L (Apera spica-venti.): application to foliage; for L (Apera spica-venti.) herbicidal effect grade: foliage application
Outline: as §1

Amaranthus retroflexus = assay: as above; settings: 320 g/ha; for herbicidal effect, N (Amaranthus retroflexus): application to foliage; for N (Amaranthus retroflexus) herbicidal effect grade: foliage application
Outline: as §1

[3] = test system: Beta vulgaris ssp. vulgaris; assay: Test Example 4: effect on crop by application to foliage (diluvial soil, plastic box); settings: 320 g/ha; for effect on crop, f (Beta vulgaris ssp. vulgaris): application to foliage; for f (Beta vulgaris ssp. vulgaris) effect on crop grade: foliage application
Outline: as §1

[4] = test system: directly sowed Oryza sativa; assay: as above; settings: 320 g/ha; for effect on crop, d (directly sowed Oryza sativa): application to foliage; for d (directly sowed Oryza sativa) effect on crop grade: foliage application
Outline: as §1

Triticum aestivum = assay: as above; settings: 320 g/ha; for effect on crop, e (Triticum aestivum): application to foliage; for e (Triticum aestivum) effect on crop grade: foliage application
Outline: as §1

Glycine max = assay: as above; settings: 320 g/ha; for effect on crop, c (Glycine max): application to foliage; for c (Glycine max) effect on crop grade: foliage application
Outline: as §1

Brassica campestris L. = assay: as above; settings: 320 g/ha; for effect on crop, g (Brassica campestris L.): application to foliage; for g (Brassica campestris L.) effect on crop grade: foliage application
Outline: as §1

Zea mays = assay: as above; settings: 320 g/ha; for b (Zea mays) effect on crop grade: foliage application
Outline: as §1

Veronica persica = assay: Test Example 4: herbicidal effect by application to foliage (diluvial soil, plastic box); settings: application to foliage, 320 g/ha
Outline: as §1

| SMILES | b (effect on crop grade) [1] | herbicidal effect, I (Avena fatua) (Avena fatua) | herbicidal effect, F (Digitaria ciliaris) (Digitaria ciliaris) | herbicidal effect, J (Alopecurus myosuroides) (Alopecurus myosuroides) | herbicidal effect, O (Chenopodium album) (Chenopodium album) | herbicidal effect, M (Abutilon theophrasti) (Abutilon theophrasti) | herbicidal effect, Q (Galium spurium) (Galium spurium) | herbicidal effect, K (Lolium multiflorum Lam.) (Lolium multiflorum Lam.) | herbicidal effect, P (Stellaria media) (Stellaria media) | herbicidal effect, H (Echinochloa crus-galli var. crus-galli) [2] | herbicidal effect, G (Setaria viridis) (Setaria viridis) | herbicidal effect, L (Apera spica-venti.) (Apera spica-venti.) | herbicidal effect, N (Amaranthus retroflexus) (Amaranthus retroflexus) | effect on crop, f (Beta vulgaris ssp. vulgaris) [3] | effect on crop, d (directly sowed Oryza sativa) [4] | effect on crop, e (Triticum aestivum) (Triticum aestivum) | effect on crop, c (Glycine max) (Glycine max) | effect on crop, g (Brassica campestris L.) (Brassica campestris L.) | I (Avena fatua) herbicidal effect grade (Avena fatua) | F (Digitaria ciliaris) herbicidal effect grade (Digitaria ciliaris) | other results |
| --- | --- | --- | --- | --- | --- | --- | --- | --- | --- | --- | --- | --- | --- | --- | --- | --- | --- | --- | --- | --- | --- |
| Cn1nnnc1NC(=O)c1ccc(C(F)(F)F)n2c(SCC(F)(F)F)nnc12 [2-087] | 3 (Herbicidal ratio of 40% or more and less than 70%) | 4 (Herbicidal ratio of 70% or more and less than 90%) | 5 (Herbicidal ratio of 90% or more (almost completely withered)) | 3 (Herbicidal ratio of 40% or more and less than 70%) | 5 (Herbicidal ratio of 90% or more (almost completely withered)) | 5 (Herbicidal ratio of 90% or more (almost completely withered)) | 3 (Herbicidal ratio of 40% or more and less than 70%) | 3 (Herbicidal ratio of 40% or more and less than 70%) | 5 (Herbicidal ratio of 90% or more (almost completely withered)) | 5 (Herbicidal ratio of 90% or more (almost completely withered)) | 4 (Herbicidal ratio of 70% or more and less than 90%) | 4 (Herbicidal ratio of 70% or more and less than 90%) | 4 (Herbicidal ratio of 70% or more and less than 90%) | 5 (Herbicidal ratio of 90% or more (almost completely withered)) | 3 (Herbicidal ratio of 40% or more and less than 70%) | 2 (Herbicidal ratio of 20% or more and less than 40%) | 0 (Herbicidal ratio of 5% or less (almost no effect)) | 3 (Herbicidal ratio of 40% or more and less than 70%) |  |  |  |
| CC(c1nnc2c(C(=O)Nc3nnnn3C)ccc(C(F)(F)F)n12)S(C)(=O)=O (centres unmarked) [2-054] | 5 (Herbicidal ratio of 90% or more (almost completely withered)) |  |  |  |  |  |  |  |  |  |  |  |  |  |  |  |  |  | 5 (Herbicidal ratio of 90% or more (almost completely withered)) | 5 (Herbicidal ratio of 90% or more (almost completely withered)) | J (Alopecurus myosuroides) herbicidal effect grade (Alopecurus myosuroides): 4 (Herbicidal ratio of 70% or more and less than 90%); O (Chenopodium album) herbicidal effect grade (Chenopodium album): 5 (Herbicidal ratio of 90% or more (almost completely withered)); M (Abutilon theophrasti) herbicidal effect grade (Abutilon theophrasti): 5 (Herbicidal ratio of 90% or more (almost completely withered)); Q (Galium spurium) herbicidal effect grade (Galium spurium; foliage application): 4 (Herbicidal ratio of 70% or more and less than 90%); K (Lolium multiflorum Lam.) herbicidal effect grade (Lolium multiflorum Lam.): 5 (Herbicidal ratio of 90% or more (almost completely withered)); P (Stellaria media) herbicidal effect grade (Stellaria media): 5 (Herbicidal ratio of 90% or more (almost completely withered)); H (Echinochloa crus-galli var. crus-galli) herbicidal effect grade [2]: 5 (Herbicidal ratio of 90% or more (almost completely withered)); G (Setaria viridis) herbicidal effect grade (Setaria viridis): 5 (Herbicidal ratio of 90% or more (almost completely withered)); L (Apera spica-venti.) herbicidal effect grade (Apera spica-venti.): 5 (Herbicidal ratio of 90% or more (almost completely withered)); N (Amaranthus retroflexus) herbicidal effect grade (Amaranthus retroflexus): 5 (Herbicidal ratio of 90% or more (almost completely withered)); f (Beta vulgaris ssp. vulgaris) effect on crop grade [3]: 5 (Herbicidal ratio of 90% or more (almost completely withered)); d (directly sowed Oryza sativa) effect on crop grade [4]: 5 (Herbicidal ratio of 90% or more (almost completely withered)); e (Triticum aestivum) effect on crop grade (Triticum aestivum): 5 (Herbicidal ratio of 90% or more (almost completely withered)); c (Glycine max) effect on crop grade (Glycine max): 5 (Herbicidal ratio of 90% or more (almost completely withered)); g (Brassica campestris L.) effect on crop grade (Brassica campestris L.): 5 (Herbicidal ratio of 90% or more (almost completely withered)); b (Zea mays) effect on crop grade (Zea mays): 5 (Herbicidal ratio of 90% or more (almost completely withered)) |
| Cc1nnc(NC(=O)c2ccc(C(F)(F)F)n3nc(C(C)C)nc23)o1 [7-001] |  | 0 (Herbicidal ratio of 5% or less (almost no effect)) | 0 (Herbicidal ratio of 5% or less (almost no effect)) | 0 (Herbicidal ratio of 5% or less (almost no effect)) | 2 (Herbicidal ratio of 20% or more and less than 40%) | 1 (Herbicidal ratio of 5% or more and less than 20%) | 0 (Herbicidal ratio of 5% or less (almost no effect)) | 0 (Herbicidal ratio of 5% or less (almost no effect)) | 1 (Herbicidal ratio of 5% or more and less than 20%) | 1 (Herbicidal ratio of 5% or more and less than 20%) | 0 (Herbicidal ratio of 5% or less (almost no effect)) | 0 (Herbicidal ratio of 5% or less (almost no effect)) | 0 (Herbicidal ratio of 5% or less (almost no effect)) | 0 (Herbicidal ratio of 5% or less (almost no effect)) | 0 (Herbicidal ratio of 5% or less (almost no effect)) | 0 (Herbicidal ratio of 5% or less (almost no effect)) | 0 (Herbicidal ratio of 5% or less (almost no effect)) | 0 (Herbicidal ratio of 5% or less (almost no effect)) |  |  | herbicidal effect, R (Veronica persica) (Veronica persica): 0 (Herbicidal ratio of 5% or less (almost no effect)); effect on crop, b (Zea mays) (Zea mays; application to foliage): 0 (Herbicidal ratio of 5% or less (almost no effect)) |
| CSC(C)c1nnc2c(C(=O)Nc3nnnn3C)ccc(C(F)(F)F)n12 (centres unmarked) [2-052] | 5 (Herbicidal ratio of 90% or more (almost completely withered)) |  |  |  |  |  |  |  |  |  |  |  |  |  |  |  |  |  | 5 (Herbicidal ratio of 90% or more (almost completely withered)) | 5 (Herbicidal ratio of 90% or more (almost completely withered)) | J (Alopecurus myosuroides) herbicidal effect grade (Alopecurus myosuroides): 5 (Herbicidal ratio of 90% or more (almost completely withered)); O (Chenopodium album) herbicidal effect grade (Chenopodium album): 5 (Herbicidal ratio of 90% or more (almost completely withered)); M (Abutilon theophrasti) herbicidal effect grade (Abutilon theophrasti): 5 (Herbicidal ratio of 90% or more (almost completely withered)); K (Lolium multiflorum Lam.) herbicidal effect grade (Lolium multiflorum Lam.): 5 (Herbicidal ratio of 90% or more (almost completely withered)); P (Stellaria media) herbicidal effect grade (Stellaria media): 5 (Herbicidal ratio of 90% or more (almost completely withered)); H (Echinochloa crus-galli var. crus-galli) herbicidal effect grade [2]: 5 (Herbicidal ratio of 90% or more (almost completely withered)); G (Setaria viridis) herbicidal effect grade (Setaria viridis): 5 (Herbicidal ratio of 90% or more (almost completely withered)); L (Apera spica-venti.) herbicidal effect grade (Apera spica-venti.): 5 (Herbicidal ratio of 90% or more (almost completely withered)); N (Amaranthus retroflexus) herbicidal effect grade (Amaranthus retroflexus): 5 (Herbicidal ratio of 90% or more (almost completely withered)); f (Beta vulgaris ssp. vulgaris) effect on crop grade [3]: 5 (Herbicidal ratio of 90% or more (almost completely withered)); d (directly sowed Oryza sativa) effect on crop grade [4]: 5 (Herbicidal ratio of 90% or more (almost completely withered)); e (Triticum aestivum) effect on crop grade (Triticum aestivum): 5 (Herbicidal ratio of 90% or more (almost completely withered)); c (Glycine max) effect on crop grade (Glycine max): 4 (Herbicidal ratio of 70% or more and less than 90%); g (Brassica campestris L.) effect on crop grade (Brassica campestris L.): 5 (Herbicidal ratio of 90% or more (almost completely withered)); b (Zea mays) effect on crop grade (Zea mays): 5 (Herbicidal ratio of 90% or more (almost completely withered)) |
